Source: ChEMBL document CHEMBL1141240, “N-8-Substituted benztropinamine analogs as selective dopamine transporter ligands” (Bioorg Med Chem Lett, 2005)

Assays:
[1] = biological target: Sodium-dependent dopamine transporter (Rattus norvegicus, UniProt P23977); experiment: Displacement of [3H]WIN-from DAT in rat brain membrane; format: cell membranes
[2] = biological target: T1, Muscarinic acetylcholine receptor M1 (Homo sapiens, UniProt P11229); experiment: Displacement of [3H]pirenzepine from Muscarinic receptor M1
T1 sequence (P11229 whole entry): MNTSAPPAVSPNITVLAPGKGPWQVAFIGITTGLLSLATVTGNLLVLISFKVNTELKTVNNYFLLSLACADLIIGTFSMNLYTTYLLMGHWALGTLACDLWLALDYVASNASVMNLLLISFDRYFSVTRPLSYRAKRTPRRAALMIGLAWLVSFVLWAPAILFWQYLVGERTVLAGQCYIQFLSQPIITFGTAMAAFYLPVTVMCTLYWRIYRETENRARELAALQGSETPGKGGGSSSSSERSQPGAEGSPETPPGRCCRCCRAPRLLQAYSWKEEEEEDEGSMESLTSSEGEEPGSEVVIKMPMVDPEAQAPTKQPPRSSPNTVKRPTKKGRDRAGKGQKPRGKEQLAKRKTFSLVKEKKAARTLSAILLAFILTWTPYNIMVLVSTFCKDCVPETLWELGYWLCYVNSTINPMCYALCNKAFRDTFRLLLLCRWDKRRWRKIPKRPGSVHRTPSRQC

[3] = biological target: Sodium-dependent serotonin transporter (Homo sapiens, UniProt P31645); experiment: Displacement of [3H]citalopram from SERT
Sequence of Sodium-dependent serotonin transporter (P31645 whole entry): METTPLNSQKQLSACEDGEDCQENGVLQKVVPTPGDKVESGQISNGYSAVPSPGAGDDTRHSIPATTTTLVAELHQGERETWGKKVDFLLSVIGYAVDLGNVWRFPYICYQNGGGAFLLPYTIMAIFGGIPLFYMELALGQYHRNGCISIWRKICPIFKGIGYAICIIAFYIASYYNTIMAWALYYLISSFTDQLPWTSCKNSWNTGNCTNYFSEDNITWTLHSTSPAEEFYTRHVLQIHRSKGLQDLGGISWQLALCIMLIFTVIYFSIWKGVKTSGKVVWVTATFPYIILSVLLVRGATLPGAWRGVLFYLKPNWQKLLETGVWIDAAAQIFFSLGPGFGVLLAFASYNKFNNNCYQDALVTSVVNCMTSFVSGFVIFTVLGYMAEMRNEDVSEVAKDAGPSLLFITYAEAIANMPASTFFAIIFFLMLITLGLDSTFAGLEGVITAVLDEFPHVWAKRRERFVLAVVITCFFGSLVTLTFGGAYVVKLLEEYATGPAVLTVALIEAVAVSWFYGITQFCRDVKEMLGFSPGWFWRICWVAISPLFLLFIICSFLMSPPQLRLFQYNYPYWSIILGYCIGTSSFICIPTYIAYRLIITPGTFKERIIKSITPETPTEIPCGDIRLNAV

[4] = biological target: Sodium-dependent noradrenaline transporter (Homo sapiens, UniProt P23975); experiment: Displacement of [3H]nisoxetine from NET
Sequence of Sodium-dependent noradrenaline transporter (P23975 whole entry): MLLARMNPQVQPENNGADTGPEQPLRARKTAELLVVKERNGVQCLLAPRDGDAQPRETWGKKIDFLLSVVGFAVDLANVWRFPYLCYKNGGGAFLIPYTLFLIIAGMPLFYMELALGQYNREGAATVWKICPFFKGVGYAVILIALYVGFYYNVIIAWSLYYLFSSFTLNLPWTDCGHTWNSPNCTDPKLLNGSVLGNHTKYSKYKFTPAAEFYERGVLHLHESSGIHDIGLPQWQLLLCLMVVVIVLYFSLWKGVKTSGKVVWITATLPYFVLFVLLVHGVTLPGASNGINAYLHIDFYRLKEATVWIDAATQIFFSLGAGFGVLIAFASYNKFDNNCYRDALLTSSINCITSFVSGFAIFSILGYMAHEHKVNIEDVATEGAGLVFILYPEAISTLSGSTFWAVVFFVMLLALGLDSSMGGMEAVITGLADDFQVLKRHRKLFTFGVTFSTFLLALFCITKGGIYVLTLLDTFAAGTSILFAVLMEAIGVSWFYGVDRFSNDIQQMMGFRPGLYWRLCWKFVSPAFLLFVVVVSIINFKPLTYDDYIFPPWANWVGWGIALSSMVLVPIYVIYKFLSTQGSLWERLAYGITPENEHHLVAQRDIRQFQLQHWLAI

[5] = Selectivity of Muscarinic receptor M1 over DAT
[6] = Selectivity of NET over DAT
[7] = Selectivity of SERT over DAT

Sequence of Sodium-dependent dopamine transporter (P23977 whole entry): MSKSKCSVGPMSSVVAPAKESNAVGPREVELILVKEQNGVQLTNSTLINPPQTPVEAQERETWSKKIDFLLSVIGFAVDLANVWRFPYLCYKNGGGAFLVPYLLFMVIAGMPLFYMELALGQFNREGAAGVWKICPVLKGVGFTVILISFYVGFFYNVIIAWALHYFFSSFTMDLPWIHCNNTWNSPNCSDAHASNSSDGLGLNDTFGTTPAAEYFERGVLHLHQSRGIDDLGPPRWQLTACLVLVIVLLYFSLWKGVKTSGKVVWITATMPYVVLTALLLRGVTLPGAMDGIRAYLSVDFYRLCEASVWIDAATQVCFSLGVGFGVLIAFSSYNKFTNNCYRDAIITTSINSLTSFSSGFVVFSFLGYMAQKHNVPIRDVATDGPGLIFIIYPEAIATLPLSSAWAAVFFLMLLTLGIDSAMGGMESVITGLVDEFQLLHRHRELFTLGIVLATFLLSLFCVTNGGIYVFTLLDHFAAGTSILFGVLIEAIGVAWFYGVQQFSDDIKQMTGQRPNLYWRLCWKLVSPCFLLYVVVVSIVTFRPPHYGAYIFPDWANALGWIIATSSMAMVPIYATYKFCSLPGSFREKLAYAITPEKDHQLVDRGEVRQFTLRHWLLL

| SMILES | Ki [1] [nM] | Ki [2] [nM] | Ki [3] [nM] | Ki [4] [nM] | Ratio Ki [5] | Ratio Ki [6] | Ratio Ki [7] |
| --- | --- | --- | --- | --- | --- | --- | --- |
| NCCN1[C@@H]2CC[C@H]1C[C@@H](OC(c1ccc(F)cc1)c1ccc(F)cc1)C2 | 5.59 | – | – | – | – | – | – |
| Fc1ccc(C(N[C@H]2C[C@H]3CC[C@@H](C2)N3CCc2c[nH]c3ccccc23)c2ccc(F)cc2)cc1 | – | 413 | 347 | 8250 | – | – | – |
| Fc1ccc(C(O[C@H]2C[C@H]3CC[C@@H](C2)N3CCc2c[nH]c3ccccc23)c2ccc(F)cc2)cc1 | 29.2 | – | – | – | – | – | – |
| CN(C(c1ccc(F)cc1)c1ccc(F)cc1)[C@H]1C[C@H]2CC[C@@H](C1)N2C | – | 18.6 | 17200 | 8410 | 0.2 | 68 | 140 |
| CN1[C@@H]2CC[C@H]1C[C@@H](NC(c1ccc(Cl)c(Cl)c1)c1ccc(Cl)c(Cl)c1)C2 | – | 17.8 | 3010 | 259 | 3 | 48 | 563 |
| CN1[C@@H]2CC[C@H]1C[C@H](NC(c1ccc(F)cc1)c1ccc(F)cc1)C2 | – | 59.4 | 48500 | 152000 | 0.1 | 230 | 73 |
| Fc1ccc(C(N[C@H]2C[C@H]3CC[C@@H](C2)N3)c2ccc(F)cc2)cc1 | – | 154 | 4150 | 997 | 18 | 118 | 491 |
| CN1[C@@H]2CC[C@H]1C[C@@H](NC(c1ccc(Cl)cc1)c1ccc(Cl)cc1)C2 | – | 50 | 4180 | 7580 | – | – | – |
| O=C(CCN1[C@@H]2CC[C@H]1C[C@@H](NC(c1ccc(F)cc1)c1ccc(F)cc1)C2)Nc1ccccc1 | – | 2540 | 608 | 2470 | 551 | 536 | 132 |
| CN1[C@@H]2CC[C@H]1C[C@@H](NC(c1ccc(F)cc1)c1ccc(F)cc1)C2 | – | 7.81 | 8680 | 1810 | 0.7 | 160 | 769 |
| O=C(CCN1[C@@H]2CC[C@H]1C[C@@H](OC(c1ccc(F)cc1)c1ccc(F)cc1)C2)Nc1ccccc1 | 6.22 | – | – | – | – | – | – |
| Fc1ccc(C(N[C@H]2C[C@H]3CC[C@@H](C2)N3CCCCc2ccccc2)c2ccc(F)cc2)cc1 | – | 438 | 502 | 1630 | 37 | 139 | 43 |
| C=CCN1[C@@H]2CC[C@H]1C[C@@H](NC(c1ccc(F)cc1)c1ccc(F)cc1)C2 | – | 130 | 3920 | 5580 | 5 | 208 | 146 |
| CCCCN1[C@@H]2CC[C@H]1C[C@@H](NC(c1ccc(F)cc1)c1ccc(F)cc1)C2 | – | 454 | 2640 | 2920 | 21 | 136 | 123 |
| CN1[C@@H]2CC[C@H]1C[C@@H](NC(c1ccccc1)c1ccc(Cl)cc1)C2 (stereo partly specified) | – | 9.3 | 13600 | 3170 | 0.3 | 87 | 373 |
| CN1C2CCC1CC(OC(c1ccc(F)cc1)c1ccc(F)cc1)C2 (stereo unspecified) [DIFLUOROBENZTROPINE] | – | 11.6 | 3260 | 844 | – | – | – |
| NCCN1[C@@H]2CC[C@H]1C[C@@H](NC(c1ccc(F)cc1)c1ccc(F)cc1)C2 | – | 2110 | 10900 | 3550 | 169 | – | – |
